Laboratory results from patent US20220340629A1, “Myosin Derived Peptides and Related Compounds with Anticoagulant Activities” (THE SCRIPPS RESEARCH INSTITUTE, priority 0001, published 2022).
Residues, ends and D or L forms follow the SMILES beside them.

molecular target: skeletal muscle myosin-supported prothrombin activation by factors Xa and Va (Homo sapiens, UniProt P00742); assay: Assay 1A: prothrombin activation by factor Xa/factor Va/myosin in purified system; assay type: biochemical, human factors Xa and Va; rabbit skeletal muscle myosin; conditions: purified system; skeletal muscle myosin, factor Va 5 nM, factor Xa 0.2 nM, prothrombin 0.75 μM, 10 min; read-out: 1A (+myosin)
Sequence (P00742 41-179): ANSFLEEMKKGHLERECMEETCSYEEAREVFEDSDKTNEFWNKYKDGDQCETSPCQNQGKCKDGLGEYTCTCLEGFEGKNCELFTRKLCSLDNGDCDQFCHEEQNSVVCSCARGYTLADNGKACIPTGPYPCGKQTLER
Sequence (P00742 235-488): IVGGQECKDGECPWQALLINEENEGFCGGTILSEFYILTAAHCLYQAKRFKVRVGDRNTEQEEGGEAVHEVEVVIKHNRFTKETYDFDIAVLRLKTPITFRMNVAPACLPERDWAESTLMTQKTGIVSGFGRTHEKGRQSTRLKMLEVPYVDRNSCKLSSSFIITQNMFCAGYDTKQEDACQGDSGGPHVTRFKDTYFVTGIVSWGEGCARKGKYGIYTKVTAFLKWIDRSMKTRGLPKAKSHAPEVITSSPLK
Sequence (P12259 29-737 partner): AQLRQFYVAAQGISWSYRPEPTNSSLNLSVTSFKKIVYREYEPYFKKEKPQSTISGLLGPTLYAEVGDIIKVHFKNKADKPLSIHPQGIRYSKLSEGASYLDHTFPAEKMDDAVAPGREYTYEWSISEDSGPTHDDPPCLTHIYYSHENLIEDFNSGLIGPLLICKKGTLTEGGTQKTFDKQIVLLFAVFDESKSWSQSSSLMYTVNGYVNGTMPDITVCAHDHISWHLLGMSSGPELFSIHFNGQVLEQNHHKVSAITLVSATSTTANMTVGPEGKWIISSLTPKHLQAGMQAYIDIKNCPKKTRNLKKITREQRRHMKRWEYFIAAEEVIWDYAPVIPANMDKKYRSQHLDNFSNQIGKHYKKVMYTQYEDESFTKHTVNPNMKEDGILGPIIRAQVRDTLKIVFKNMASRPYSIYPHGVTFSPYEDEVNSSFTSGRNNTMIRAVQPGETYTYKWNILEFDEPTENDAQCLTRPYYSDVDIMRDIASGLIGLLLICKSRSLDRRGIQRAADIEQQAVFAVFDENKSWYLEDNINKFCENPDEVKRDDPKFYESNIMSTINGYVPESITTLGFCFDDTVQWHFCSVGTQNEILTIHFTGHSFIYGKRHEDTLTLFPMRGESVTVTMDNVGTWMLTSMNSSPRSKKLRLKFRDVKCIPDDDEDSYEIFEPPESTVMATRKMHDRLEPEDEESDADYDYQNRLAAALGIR
Sequence (P12259 1574-2224 partner): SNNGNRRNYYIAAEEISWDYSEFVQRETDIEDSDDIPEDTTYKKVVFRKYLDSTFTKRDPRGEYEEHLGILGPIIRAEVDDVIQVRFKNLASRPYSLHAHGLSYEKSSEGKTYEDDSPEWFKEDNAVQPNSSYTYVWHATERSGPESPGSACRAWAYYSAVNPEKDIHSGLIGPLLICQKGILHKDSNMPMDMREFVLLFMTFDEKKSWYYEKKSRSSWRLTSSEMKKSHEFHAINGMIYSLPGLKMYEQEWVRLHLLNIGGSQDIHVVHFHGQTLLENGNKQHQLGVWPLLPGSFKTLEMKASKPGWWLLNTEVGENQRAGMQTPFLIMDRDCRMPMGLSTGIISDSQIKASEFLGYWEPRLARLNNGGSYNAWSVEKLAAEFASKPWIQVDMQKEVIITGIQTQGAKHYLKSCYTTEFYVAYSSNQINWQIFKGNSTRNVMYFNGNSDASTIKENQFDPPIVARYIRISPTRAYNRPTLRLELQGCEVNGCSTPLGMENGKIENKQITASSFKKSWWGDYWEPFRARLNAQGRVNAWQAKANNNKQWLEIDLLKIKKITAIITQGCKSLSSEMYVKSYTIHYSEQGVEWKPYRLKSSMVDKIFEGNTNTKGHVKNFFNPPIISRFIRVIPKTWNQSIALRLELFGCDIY

Row | SMILES | IC50 [nM]
1 | CC[C@H](C)[C@H](NC(=O)[C@H](C)N)C(=O)N[C@@H](Cc1ccccc1)C(=O)N[C@@H](C)C(=O)N[C@H](C(=O)N[C@@H](CCC(N)=O)C(=O)N[C@@H](Cc1ccc(O)cc1)C(=O)N[C@@H](CC(N)=O)C(=O)N[C@H](C(=O)N[C@@H](CCCNC(=N)N)C(=O)N[C@@H](CO)C(=O)N[C@@H](Cc1ccccc1)C(=O)N[C@@H](CCSC)C(=O)N[C@@H](CC(N)=O)C(=O)N[C@H](C(=O)N[C@@H](CCCCN)C(=O)N[C@@H](Cc1c[nH]cn1)C(=O)N[C@@H](Cc1c[nH]c2ccccc12)C(=O)N1CCC[C@H]1C(=O)N[C@@H](Cc1c[nH]c2ccccc12)C(=O)N[C@@H](CCSC)C(=O)N[C@@H](CCCCN)C(N)=O)C(C)C)[C@@H](C)CC)[C@@H](C)CC [HC119] (H-AIFAIQYNIRSFMNVKHWPWMK-NH2; N-terminus assumed) | 5200
2 | CC[C@H](C)[C@H](NC(=O)[C@H](C)N)C(=O)N[C@@H](Cc1ccccc1)C(=O)N[C@@H](CS)C(=O)N[C@@H](C)C(=O)N[C@@H](CCC(N)=O)C(=O)N[C@@H](Cc1ccc(O)cc1)C(=O)N[C@@H](CC(N)=O)C(=O)N[C@H](C(=O)N[C@@H](CCCNC(=N)N)C(=O)N[C@@H](CO)C(=O)N[C@@H](Cc1ccccc1)C(=O)N[C@@H](CCSC)C(=O)N[C@@H](CC(N)=O)C(=O)N[C@H](C(=O)N[C@@H](CCCCN)C(=O)N[C@@H](Cc1c[nH]cn1)C(=O)N[C@@H](Cc1c[nH]c2ccccc12)C(=O)N1CCC[C@H]1C(=O)N[C@@H](Cc1c[nH]c2ccccc12)C(=O)N[C@@H](CCSC)C(=O)N[C@@H](CCCCN)C(N)=O)C(C)C)[C@@H](C)CC [HC120] (H-AIFCAQYNIRSFMNVKHWPWMK-NH2; N-terminus assumed) | 5200
3 | CC[C@H](C)[C@H](NC(=O)[C@H](C)N)C(=O)N[C@@H](Cc1ccccc1)C(=O)N[C@@H](CS)C(=O)N[C@H](C(=O)N[C@@H](C)C(=O)N[C@@H](Cc1ccc(O)cc1)C(=O)N[C@@H](CC(N)=O)C(=O)N[C@H](C(=O)N[C@@H](CCCNC(=N)N)C(=O)N[C@@H](CO)C(=O)N[C@@H](Cc1ccccc1)C(=O)N[C@@H](CCSC)C(=O)N[C@@H](CC(N)=O)C(=O)N[C@H](C(=O)N[C@@H](CCCCN)C(=O)N[C@@H](Cc1c[nH]cn1)C(=O)N[C@@H](Cc1c[nH]c2ccccc12)C(=O)N1CCC[C@H]1C(=O)N[C@@H](Cc1c[nH]c2ccccc12)C(=O)N[C@@H](CCSC)C(=O)N[C@@H](CCCCN)C(N)=O)C(C)C)[C@@H](C)CC)[C@@H](C)CC [HC121] (H-AIFCIAYNIRSFMNVKHWPWMK-NH2; N-terminus assumed) | 3200
4 | CC[C@H](C)[C@H](NC(=O)[C@H](C)N)C(=O)N[C@@H](Cc1ccccc1)C(=O)N[C@@H](CS)C(=O)N[C@H](C(=O)N[C@@H](CCC(N)=O)C(=O)N[C@@H](Cc1ccc(O)cc1)C(=O)N[C@@H](CC(N)=O)C(=O)N[C@H](C(=O)N[C@@H](CCCNC(=N)N)C(=O)N[C@@H](C)C(=O)N[C@@H](Cc1ccccc1)C(=O)N[C@@H](CCSC)C(=O)N[C@@H](CC(N)=O)C(=O)N[C@H](C(=O)N[C@@H](CCCCN)C(=O)N[C@@H](Cc1c[nH]cn1)C(=O)N[C@@H](Cc1c[nH]c2ccccc12)C(=O)N1CCC[C@H]1C(=O)N[C@@H](Cc1c[nH]c2ccccc12)C(=O)N[C@@H](CCSC)C(=O)N[C@@H](CCCCN)C(N)=O)C(C)C)[C@@H](C)CC)[C@@H](C)CC [HC126] (H-AIFCIQYNIRAFMNVKHWPWMK-NH2; N-terminus assumed) | 4900
5 | CC[C@H](C)[C@H](NC(=O)[C@H](C)N)C(=O)N[C@@H](Cc1ccccc1)C(=O)N[C@@H](CS)C(=O)N[C@H](C(=O)N[C@@H](CCC(N)=O)C(=O)N[C@@H](Cc1ccc(O)cc1)C(=O)N[C@@H](CC(N)=O)C(=O)N[C@H](C(=O)N[C@@H](CCCNC(=N)N)C(=O)N[C@@H](CO)C(=O)N[C@@H](C)C(=O)N[C@@H](CCSC)C(=O)N[C@@H](CC(N)=O)C(=O)N[C@H](C(=O)N[C@@H](CCCCN)C(=O)N[C@@H](Cc1c[nH]cn1)C(=O)N[C@@H](Cc1c[nH]c2ccccc12)C(=O)N1CCC[C@H]1C(=O)N[C@@H](Cc1c[nH]c2ccccc12)C(=O)N[C@@H](CCSC)C(=O)N[C@@H](CCCCN)C(N)=O)C(C)C)[C@@H](C)CC)[C@@H](C)CC [HC127] (H-AIFCIQYNIRSAMNVKHWPWMK-NH2; N-terminus assumed) | 5900

The next molecules have a lower IC50 than those just listed; values first:

Row | IC50 [nM] | SMILES
6 | 780 | CC[C@H](C)[C@H](NC(=O)[C@H](CS)NC(=O)[C@H](Cc1ccccc1)NC(=O)[C@H](C)NC(=O)[C@H](C)N)C(=O)N[C@@H](CCC(N)=O)C(=O)N[C@@H](Cc1ccc(O)cc1)C(=O)N[C@@H](CC(N)=O)C(=O)N[C@H](C(=O)N[C@@H](CCCNC(=N)N)C(=O)N[C@@H](CO)C(=O)N[C@@H](Cc1ccccc1)C(=O)N[C@@H](CCSC)C(=O)N[C@@H](CC(N)=O)C(=O)N[C@H](C(=O)N[C@@H](CCCCN)C(=O)N[C@@H](Cc1c[nH]cn1)C(=O)N[C@@H](Cc1c[nH]c2ccccc12)C(=O)N1CCC[C@H]1C(=O)N[C@@H](Cc1c[nH]c2ccccc12)C(=O)N[C@@H](CCSC)C(=O)N[C@@H](CCCCN)C(N)=O)C(C)C)[C@@H](C)CC [HC117] (H-AAFCIQYNIRSFMNVKHWPWMK-NH2; N-terminus assumed)
7 | 1800 | CC[C@H](C)[C@H](NC(=O)[C@H](C)N)C(=O)N[C@@H](C)C(=O)N[C@@H](CS)C(=O)N[C@H](C(=O)N[C@@H](CCC(N)=O)C(=O)N[C@@H](Cc1ccc(O)cc1)C(=O)N[C@@H](CC(N)=O)C(=O)N[C@H](C(=O)N[C@@H](CCCNC(=N)N)C(=O)N[C@@H](CO)C(=O)N[C@@H](Cc1ccccc1)C(=O)N[C@@H](CCSC)C(=O)N[C@@H](CC(N)=O)C(=O)N[C@H](C(=O)N[C@@H](CCCCN)C(=O)N[C@@H](Cc1c[nH]cn1)C(=O)N[C@@H](Cc1c[nH]c2ccccc12)C(=O)N1CCC[C@H]1C(=O)N[C@@H](Cc1c[nH]c2ccccc12)C(=O)N[C@@H](CCSC)C(=O)N[C@@H](CCCCN)C(N)=O)C(C)C)[C@@H](C)CC)[C@@H](C)CC [HC118] (H-AIACIQYNIRSFMNVKHWPWMK-NH2; N-terminus assumed)
8 | 1100 | CC[C@H](C)[C@H](NC(=O)[C@H](C)N)C(=O)N[C@@H](Cc1ccccc1)C(=O)N[C@@H](CS)C(=O)N[C@H](C(=O)N[C@@H](CCC(N)=O)C(=O)N[C@@H](C)C(=O)N[C@@H](CC(N)=O)C(=O)N[C@H](C(=O)N[C@@H](CCCNC(=N)N)C(=O)N[C@@H](CO)C(=O)N[C@@H](Cc1ccccc1)C(=O)N[C@@H](CCSC)C(=O)N[C@@H](CC(N)=O)C(=O)N[C@H](C(=O)N[C@@H](CCCCN)C(=O)N[C@@H](Cc1c[nH]cn1)C(=O)N[C@@H](Cc1c[nH]c2ccccc12)C(=O)N1CCC[C@H]1C(=O)N[C@@H](Cc1c[nH]c2ccccc12)C(=O)N[C@@H](CCSC)C(=O)N[C@@H](CCCCN)C(N)=O)C(C)C)[C@@H](C)CC)[C@@H](C)CC [HC122] (H-AIFCIQANIRSFMNVKHWPWMK-NH2; N-terminus assumed)
9 | 600 | CC[C@H](C)[C@H](NC(=O)[C@H](C)N)C(=O)N[C@@H](Cc1ccccc1)C(=O)N[C@@H](CS)C(=O)N[C@H](C(=O)N[C@@H](CCC(N)=O)C(=O)N[C@@H](Cc1ccc(O)cc1)C(=O)N[C@@H](C)C(=O)N[C@H](C(=O)N[C@@H](CCCNC(=N)N)C(=O)N[C@@H](CO)C(=O)N[C@@H](Cc1ccccc1)C(=O)N[C@@H](CCSC)C(=O)N[C@@H](CC(N)=O)C(=O)N[C@H](C(=O)N[C@@H](CCCCN)C(=O)N[C@@H](Cc1c[nH]cn1)C(=O)N[C@@H](Cc1c[nH]c2ccccc12)C(=O)N1CCC[C@H]1C(=O)N[C@@H](Cc1c[nH]c2ccccc12)C(=O)N[C@@H](CCSC)C(=O)N[C@@H](CCCCN)C(N)=O)C(C)C)[C@@H](C)CC)[C@@H](C)CC [HC123] (H-AIFCIQYAIRSFMNVKHWPWMK-NH2; N-terminus assumed)
10 | 700 | CC[C@H](C)[C@H](NC(=O)[C@H](C)N)C(=O)N[C@@H](Cc1ccccc1)C(=O)N[C@@H](CS)C(=O)N[C@H](C(=O)N[C@@H](CCC(N)=O)C(=O)N[C@@H](Cc1ccc(O)cc1)C(=O)N[C@@H](CC(N)=O)C(=O)N[C@@H](C)C(=O)N[C@@H](CCCNC(=N)N)C(=O)N[C@@H](CO)C(=O)N[C@@H](Cc1ccccc1)C(=O)N[C@@H](CCSC)C(=O)N[C@@H](CC(N)=O)C(=O)N[C@H](C(=O)N[C@@H](CCCCN)C(=O)N[C@@H](Cc1c[nH]cn1)C(=O)N[C@@H](Cc1c[nH]c2ccccc12)C(=O)N1CCC[C@H]1C(=O)N[C@@H](Cc1c[nH]c2ccccc12)C(=O)N[C@@H](CCSC)C(=O)N[C@@H](CCCCN)C(N)=O)C(C)C)[C@@H](C)CC [HC124] (H-AIFCIQYNARSFMNVKHWPWMK-NH2; N-terminus assumed)
11 | 600 | CC[C@H](C)[C@H](NC(=O)[C@H](C)N)C(=O)N[C@@H](Cc1ccccc1)C(=O)N[C@@H](CS)C(=O)N[C@H](C(=O)N[C@@H](CCC(N)=O)C(=O)N[C@@H](Cc1ccc(O)cc1)C(=O)N[C@@H](CC(N)=O)C(=O)N[C@H](C(=O)N[C@@H](C)C(=O)N[C@@H](CO)C(=O)N[C@@H](Cc1ccccc1)C(=O)N[C@@H](CCSC)C(=O)N[C@@H](CC(N)=O)C(=O)N[C@H](C(=O)N[C@@H](CCCCN)C(=O)N[C@@H](Cc1c[nH]cn1)C(=O)N[C@@H](Cc1c[nH]c2ccccc12)C(=O)N1CCC[C@H]1C(=O)N[C@@H](Cc1c[nH]c2ccccc12)C(=O)N[C@@H](CCSC)C(=O)N[C@@H](CCCCN)C(N)=O)C(C)C)[C@@H](C)CC)[C@@H](C)CC [HC125] (H-AIFCIQYNIASFMNVKHWPWMK-NH2; N-terminus assumed)
12 | 2000 | CC[C@H](C)[C@H](NC(=O)[C@H](C)N)C(=O)N[C@@H](Cc1ccccc1)C(=O)N[C@@H](CS)C(=O)N[C@H](C(=O)N[C@@H](CCC(N)=O)C(=O)N[C@@H](Cc1ccc(O)cc1)C(=O)N[C@@H](CC(N)=O)C(=O)N[C@H](C(=O)N[C@@H](CCCNC(=N)N)C(=O)N[C@@H](CO)C(=O)N[C@@H](Cc1ccccc1)C(=O)N[C@@H](C)C(=O)N[C@@H](CC(N)=O)C(=O)N[C@H](C(=O)N[C@@H](CCCCN)C(=O)N[C@@H](Cc1c[nH]cn1)C(=O)N[C@@H](Cc1c[nH]c2ccccc12)C(=O)N1CCC[C@H]1C(=O)N[C@@H](Cc1c[nH]c2ccccc12)C(=O)N[C@@H](CCSC)C(=O)N[C@@H](CCCCN)C(N)=O)C(C)C)[C@@H](C)CC)[C@@H](C)CC [HC128] (H-AIFCIQYNIRSFANVKHWPWMK-NH2; N-terminus assumed)
